Experimental data taken from the NIST ThermoML archive (doi:10.1021/je901067c).

Legend:
[1] = 101 kPa, Liquid; for viscosity: Capillary tube (Ostwald / Ubbelohde) method
[2] = refractive index (Na D-line) (dimensionless); details: 101.33 kPa, Liquid, Standard Abbe refractometry
[3] = xn = mol fraction of the nth substance listed; details: 101 kPa, Liquid; for viscosity: Capillary tube (Ostwald / Ubbelohde) method
[4] = refractive index (Na D-line) (dimensionless); xn = mol fraction of the nth substance listed; details: 101 kPa, Liquid, Standard Abbe refractometry

CCC(O)CC [3-pentanol]
Details | mass density, 298.15 K [kg/m3] | mass density, 308.15 K [kg/m3] | mass density, 318.15 K [kg/m3] | refractive index, 298.15 K | refractive index, 308.15 K | refractive index, 318.15 K | viscosity, 298.15 K [mPa·s] | viscosity, 308.15 K [mPa·s] | viscosity, 318.15 K [mPa·s]
[1] | 815.79 | 806.91 | 797.66 | – | – | – | 4.625 | 2.864 | 1.902
[2] | – | – | – | 1.4047 | 1.4029 | 1.3981 | – | – | –

CCC(C)=O [butanone]
Details | mass density, 298.15 K [kg/m3] | mass density, 308.15 K [kg/m3] | mass density, 318.15 K [kg/m3] | refractive index, 298.15 K | refractive index, 308.15 K | refractive index, 318.15 K | viscosity, 298.15 K [mPa·s] | viscosity, 308.15 K [mPa·s] | viscosity, 318.15 K [mPa·s]
[1] | 799.76 | 789.21 | 778.52 | – | – | – | 0.391 | 0.361 | 0.334
[2] | – | – | – | 1.375 | 1.37 | 1.3657 | – | – | –

CCC(C)=O [butanone] + CCC(O)CC
x1 = 1
Details | mass density, 298.15 K [kg/m3] | mass density, 308.15 K [kg/m3] | mass density, 318.15 K [kg/m3] | refractive index, 298.15 K | refractive index, 308.15 K | refractive index, 318.15 K | viscosity, 298.15 K [mPa·s] | viscosity, 308.15 K [mPa·s] | viscosity, 318.15 K [mPa·s]
[3] | 799.76 | 789.21 | 778.52 | – | – | – | 0.391 | 0.361 | 0.334
[4] | – | – | – | 1.375 | 1.37 | 1.3657 | – | – | –

CCC(C)=O [butanone] + CCCC(C)O
x1 = 1
Details | mass density, 298.15 K [kg/m3] | mass density, 308.15 K [kg/m3] | mass density, 318.15 K [kg/m3] | refractive index, 298.15 K | refractive index, 308.15 K | refractive index, 318.15 K | viscosity, 298.15 K [mPa·s] | viscosity, 308.15 K [mPa·s] | viscosity, 318.15 K [mPa·s]
[3] | 799.76 | 789.21 | 778.52 | – | – | – | 0.391 | 0.361 | 0.334
[4] | – | – | – | 1.375 | 1.37 | 1.3657 | – | – | –

CCCCCO [pentan-1-ol]
Details | mass density, 298.15 K [kg/m3] | mass density, 308.15 K [kg/m3] | mass density, 318.15 K [kg/m3] | refractive index, 298.15 K | refractive index, 308.15 K | refractive index, 318.15 K | viscosity, 298.15 K [mPa·s] | viscosity, 308.15 K [mPa·s] | viscosity, 318.15 K [mPa·s]
[1] | 810.85 | 803.45 | 795.9 | – | – | – | 3.54 | 2.658 | 2.288
[2] | – | – | – | 1.4068 | 1.4031 | 1.3996 | – | – | –

CCCCCO [pentan-1-ol] + CCC(C)=O
x2 = 0
Details | mass density, 298.15 K [kg/m3] | mass density, 308.15 K [kg/m3] | mass density, 318.15 K [kg/m3] | refractive index, 298.15 K | refractive index, 308.15 K | refractive index, 318.15 K | viscosity, 298.15 K [mPa·s] | viscosity, 308.15 K [mPa·s] | viscosity, 318.15 K [mPa·s]
[3] | 810.85 | 803.45 | 795.9 | – | – | – | 3.54 | 2.658 | 2.288
[4] | – | – | – | 1.4068 | 1.4031 | 1.3996 | – | – | –

CCCC(C)O (stereo not drawn) [pentan-2-ol]
Details | mass density, 298.15 K [kg/m3] | mass density, 308.15 K [kg/m3] | mass density, 318.15 K [kg/m3] | refractive index, 298.15 K | refractive index, 308.15 K | refractive index, 318.15 K | viscosity, 298.15 K [mPa·s] | viscosity, 308.15 K [mPa·s] | viscosity, 318.15 K [mPa·s]
[1] | 805.3 | 797 | 788.37 | – | – | – | 3.478 | 2.361 | 1.772
[2] | – | – | – | 1.4032 | 1.399 | 1.395 | – | – | –
